From US11168073B2, “3,3-difluoroallylamines or salts thereof and pharmaceutical compositions comprising the same” (YUHAN CORPORATION, priority 2018, dated 2021)
Structures can show the parent of a compound that is named as a salt. Where two headings read alike, the source gives them in different places.

What was measured:
Type in all cases: biochemical
[1] = molecular target: T1, recombinant human MAO-A (monoamine oxidase-A) (Homo sapiens, UniProt P21397); test: Activity evaluation on recombinant human MAO-A (Amplex Red/HRP-coupled assay, 0.5 mM tyramine substrate); conditions: read-out: Inhibitory Activity (IC50, nM) MAO-A
T1 construct: purchased Sigma-Aldrich
T1 sequence (P21397 1-527): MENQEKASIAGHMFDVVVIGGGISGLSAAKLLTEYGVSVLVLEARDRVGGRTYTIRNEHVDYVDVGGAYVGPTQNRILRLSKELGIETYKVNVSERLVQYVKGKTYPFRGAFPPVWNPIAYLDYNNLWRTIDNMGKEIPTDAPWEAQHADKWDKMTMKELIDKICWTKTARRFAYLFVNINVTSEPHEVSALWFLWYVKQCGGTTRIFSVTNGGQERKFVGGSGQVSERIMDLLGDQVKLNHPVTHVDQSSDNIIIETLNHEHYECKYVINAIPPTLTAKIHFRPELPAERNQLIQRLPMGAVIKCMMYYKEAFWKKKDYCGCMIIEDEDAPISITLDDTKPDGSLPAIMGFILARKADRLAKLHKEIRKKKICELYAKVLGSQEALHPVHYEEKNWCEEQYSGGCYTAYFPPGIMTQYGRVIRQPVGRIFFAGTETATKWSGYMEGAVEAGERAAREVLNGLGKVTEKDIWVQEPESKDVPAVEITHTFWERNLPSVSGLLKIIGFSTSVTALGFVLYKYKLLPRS
In short: (§1)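 Compounds preincubated 30 min at 37 °C with enzyme in 50 mM sodium phosphate pH 7.4 (final DMSO <1%, 8-point 1:3 dilutions); reaction started with 200 uM Amplex Red, 1 U/mL HRP and substrate (MAO-A 0.5 mM tyramine, MAO-B 1 mM benzylamine, DAO 1 mM putrescine). Resorufin fluorescence (ex 544/em 590 nm) followed over 1-2 h; IC50 from four-parameter logistic fit.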

recombinant human VAP-1 = molecular target: T2, recombinant human VAP-1 (Homo sapiens, UniProt Q16853); test: Activity evaluation on recombinant human VAP-1 (Amplex Red/HRP-coupled hydrogen peroxide assay, benzylamine substrate); conditions: read-out: Inhibitory Activity (IC50, nM) human VAP-1
T2 construct: purchased R&D systems
T2 sequence (Q16853 1-763): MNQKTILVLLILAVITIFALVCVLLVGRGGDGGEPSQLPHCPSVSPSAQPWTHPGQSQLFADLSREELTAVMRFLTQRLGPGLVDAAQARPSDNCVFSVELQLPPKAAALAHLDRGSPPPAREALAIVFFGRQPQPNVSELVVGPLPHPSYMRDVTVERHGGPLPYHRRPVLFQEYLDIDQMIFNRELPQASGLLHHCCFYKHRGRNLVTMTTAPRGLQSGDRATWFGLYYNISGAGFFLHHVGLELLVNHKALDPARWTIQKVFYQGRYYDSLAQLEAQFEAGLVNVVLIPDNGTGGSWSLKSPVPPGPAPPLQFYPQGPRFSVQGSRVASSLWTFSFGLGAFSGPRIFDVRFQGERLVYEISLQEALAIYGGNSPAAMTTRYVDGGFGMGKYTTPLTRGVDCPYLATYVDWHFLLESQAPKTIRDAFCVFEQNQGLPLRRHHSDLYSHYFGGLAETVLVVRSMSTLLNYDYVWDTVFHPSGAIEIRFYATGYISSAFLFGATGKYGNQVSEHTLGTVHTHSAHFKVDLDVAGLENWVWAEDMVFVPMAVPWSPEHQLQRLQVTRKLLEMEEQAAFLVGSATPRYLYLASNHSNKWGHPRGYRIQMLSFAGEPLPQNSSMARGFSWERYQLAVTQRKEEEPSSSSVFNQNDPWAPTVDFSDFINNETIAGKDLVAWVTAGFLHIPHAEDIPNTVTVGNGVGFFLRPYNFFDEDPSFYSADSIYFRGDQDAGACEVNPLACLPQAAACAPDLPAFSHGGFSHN
In short: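 Recombinant human VAP-1 in 50 mM sodium phosphate pH 7.4 preincubated 30 min at 37 °C with compound (8-point 1:3 series, <1% DMSO), then 1 mM benzylamine, 200 uM Amplex Red, 1 U/mL HRP added. H2O2-derived resorufin fluorescence (ex 544/em 590) followed 1–2 h; IC50 from four-parameter fit of rate inhibition.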

[2] = molecular target: T3, recombinant human DAO (diamine oxidase) (Homo sapiens, UniProt P19801); test: Activity evaluation on recombinant human DAO (Amplex Red/HRP-coupled assay, 1 mM putrescine substrate); conditions: read-out: Inhibitory Activity (IC50, nM) DAO
T3 construct: purchased R&D systems
T3 sequence (P19801 20-751): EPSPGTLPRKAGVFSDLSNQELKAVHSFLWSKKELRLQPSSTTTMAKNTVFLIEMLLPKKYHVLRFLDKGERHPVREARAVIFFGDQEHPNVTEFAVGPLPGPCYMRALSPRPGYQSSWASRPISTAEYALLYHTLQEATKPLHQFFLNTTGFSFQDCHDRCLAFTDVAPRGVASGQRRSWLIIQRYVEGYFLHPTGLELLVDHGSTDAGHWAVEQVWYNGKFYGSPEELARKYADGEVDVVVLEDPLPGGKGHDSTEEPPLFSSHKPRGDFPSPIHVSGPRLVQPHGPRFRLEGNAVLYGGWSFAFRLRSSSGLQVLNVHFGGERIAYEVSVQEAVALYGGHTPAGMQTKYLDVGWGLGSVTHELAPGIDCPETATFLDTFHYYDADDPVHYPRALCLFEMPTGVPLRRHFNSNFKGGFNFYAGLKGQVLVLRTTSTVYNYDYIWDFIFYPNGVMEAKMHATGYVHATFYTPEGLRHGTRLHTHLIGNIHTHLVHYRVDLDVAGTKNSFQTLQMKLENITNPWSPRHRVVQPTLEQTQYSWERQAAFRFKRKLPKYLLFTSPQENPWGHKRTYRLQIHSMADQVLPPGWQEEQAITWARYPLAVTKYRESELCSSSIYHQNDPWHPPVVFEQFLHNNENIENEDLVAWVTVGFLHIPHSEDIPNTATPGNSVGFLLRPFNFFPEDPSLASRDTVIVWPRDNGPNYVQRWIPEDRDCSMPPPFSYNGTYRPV
In short: as §1

[3] = molecular target: T4, recombinant human MAO-B (monoamine oxidase-B) (Homo sapiens, UniProt P27338); test: Activity evaluation on recombinant human MAO-B (Amplex Red/HRP-coupled assay, 1 mM benzylamine substrate); conditions: read-out: Inhibitory Activity (IC50, nM) MAO-B
T4 construct: purchased Sigma-Aldrich
T4 sequence (P27338 1-520): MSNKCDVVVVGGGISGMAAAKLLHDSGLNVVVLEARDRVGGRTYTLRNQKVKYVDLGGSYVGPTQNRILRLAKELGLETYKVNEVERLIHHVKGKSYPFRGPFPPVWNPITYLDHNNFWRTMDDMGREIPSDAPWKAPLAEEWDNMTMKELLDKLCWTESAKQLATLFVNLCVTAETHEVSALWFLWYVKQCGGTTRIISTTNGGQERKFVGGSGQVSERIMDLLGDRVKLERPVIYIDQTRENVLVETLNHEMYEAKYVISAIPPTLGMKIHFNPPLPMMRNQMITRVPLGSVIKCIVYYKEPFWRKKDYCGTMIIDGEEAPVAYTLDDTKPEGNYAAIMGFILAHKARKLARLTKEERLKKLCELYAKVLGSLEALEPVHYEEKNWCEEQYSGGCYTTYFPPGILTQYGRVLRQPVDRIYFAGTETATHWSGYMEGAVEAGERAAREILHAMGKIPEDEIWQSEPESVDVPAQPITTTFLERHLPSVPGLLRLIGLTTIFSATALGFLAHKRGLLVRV
In short: as §1

[4] = recombinant human VAP-1, 30 min preincubation at 37° C., 1 mM benzylamine
[5] = recombinant human VAP-1, benzylamine substrate

SMILES	IC50 ([1]; 0.5 mM tyramine)	IC50 (recombinant human VAP-1; [4])	IC50 ([2]; 1 mM putrescine)	IC50 ([3]; 1 mM benzylamine)	IC50 ([1]; 0.5 mM tyramine substrate)	IC50 (recombinant human VAP-1; [5])	IC50 ([2]; 1 mM putrescine substrate)	IC50 ([3]; 1 mM benzylamine substrate)
Cc1cc(-c2ccc(N(C)C)nc2)cnc1-n1cnn(CC(CN)=C(F)F)c1=O [Example 71, 2-[2-(aminomethyl)-3,3-difluoro-allyl]-4-[5-[6-(dimethylamino)-3-pyridyl]-3-methyl-2-pyridyl]-1,2,4-triazol-3-one Trifluoroacetate]	> 100000 nM	0.8 nM	> 100000 nM	> 100000 nM				
Cc1cc(C#Cc2ccc(N3CCOCC3)nc2)cnc1-n1cnn(CC(CN)=C(F)F)c1=O [Example 242, 2-[2-(aminomethyl)-3,3-difluoro-allyl]-4-[3-methyl-5-[2-(6-morpholino-3-pyridyl)ethynyl]-2-pyridyl]-1,2,4-triazol-3-one Trifluoroacetate]					> 100000 nM	1 nM	4200 nM	29000 nM
NCC(Cn1ncn(Cc2cc(-c3cc(F)c4[nH]c(=O)ccc4c3)cs2)c1=O)=C(F)F [Example 189, 6-[5-[[1-[2-(aminomethyl)-3,3-difluoro-allyl]-5-oxo-1,2,4-triazol-4-yl]methyl]-3-thienyl]-8-fluoro-1H-quinolin-2-one Trifluoroacetate]					> 100000 nM	0.5 nM	23000 nM	> 100000 nM
CCn1cc(-c2ccc3cc(Cn4cnn(CC(CN)=C(F)F)c4=O)sc3c2)cn1 [Example 204, 2-[2-(aminomethyl)-3,3-difluoro-allyl]-4-[[6-(1-ethylpyrazol-4-yl)benzothiophen-2-yl]methyl]-1,2,4-triazol-3-one Trifluoroacetate]					> 100000 nM	0.5 nM	41200 nM	89900 nM
Cc1cc(-c2ccnc(-n3cnn(CC(CN)=C(F)F)c3=O)c2)cc2c1NC(=O)CC2 [Example 59, 6-[2-[1-[2-(aminomethyl)-3,3-difluoro-allyl]-5-oxo-1,2,4-triazol-4-yl]-4-pyridyl]-8-methyl-3,4-dihydro-1H-quinolin-2-one Trifluoroacetate]	> 100000 nM	0.5 nM	84 nM	> 100000 nM				
CN1C(=O)CCc2cc(-c3ccc4sc(Cn5cnn(CC(CN)=C(F)F)c5=O)cc4c3)ccc21 [Example 211, 6-[2-[[1-[2-(aminomethyl)-3,3-difluoro-allyl]-5-oxo-1,2,4-triazol-4-yl]methyl]benzothiophen-5-yl]-1-methyl-3,4-dihydroquinolin-2-one Trifluoroacetate]					38900 nM	1.1 nM	1860 nM	42700 nM
NCC(Cn1ncn(Cc2ccc(-c3cn[nH]c3)s2)c1=O)=C(F)F [Example 292, 2-[2-(aminomethyl)-3,3-difluoro-allyl]-4-[[5-(1H-pyrazol-4-yl)-2-thienyl]methyl]-1,2,4-triazol-3-one Trifluoroacetate]					86200 nM	2.7 nM	> 100000 nM	> 100000 nM
Cc1cc(-c2ccc(N3CCNCC3)nc2)cnc1-n1cnn(CC(CN)=C(F)F)c1=O [Example 220, 2-[2-(aminomethyl)-3,3-difluoro-allyl]-4-[3-methyl-5-(6-piperazin-1-yl-3-pyridyl)-2-pyridyl]-1,2,4-triazol-3-one Ditrifluoroacetate]					> 100000 nM	1.1 nM	11000 nM	> 100000 nM
CN(C)S(=O)(=O)c1cccc(-c2ccc(Cn3cnn(CC(CN)=C(F)F)c3=O)s2)c1 [Example 103, 3-[5-[[1-[2-(aminomethyl)-3,3-difluoro-allyl]-5-oxo-1,2,4-triazol-4-yl]methyl]-2-thienyl]-N,N-dimethyl-benzenesulfonamide trifluoroacetate]	> 100000 nM	0.9 nM	22000 nM	4200 nM				
Cc1cc(-n2cnn(CC(CN)=C(F)F)c2=O)cnc1-c1ccc(C(F)(F)F)nc1 [Example 77, 2-[2-(aminomethyl)-3,3-difluoro-allyl]-4-[5-methyl-6-[6-(trifluoromethyl)-3-pyridyl]-3-pyridyl]-1,2,4-triazol-3-one Trifluoroacetate]	> 100000 nM	1 nM	10 nM	1600 nM				
NCC(Cn1ncn(Cc2cc(-c3ccc4c(c3)OCO4)cs2)c1=O)=C(F)F [Example 150, 2-[2-(aminomethyl)-3,3-difluoro-allyl]-4-[[4-(1,3-benzodioxol-5-yl)-2-thienyl]methyl]-1,2,4-triazol-3-one Trifluoroacetate]	> 100000 nM	2.9 nM	> 10000 nM	2800 nM				
CCn1cc(-c2cccc(-c3csc(Cn4cnn(CC(CN)=C(F)F)c4=O)c3)c2)cn1 [Example 289, 2-[2-(aminomethyl)-3,3-difluoro-allyl]-4-[[4-[3-(1-ethylpyrazol-4-yl)phenyl]-2-thienyl]methyl]-1,2,4-triazol-3-one Trifluoroacetate]					> 100000 nM	0.6 nM	14500 nM	12000 nM
